Values after ≈ are worked out from the molar mass of the structure shown. Active and inactive are the calls of the source. The rule behind the calls is not given here.
What was measured:
[1] = Cytotoxicity against mouse B16F10 cells assessed as decrease in cell number after 24 hrs by MTT assay; format: functional, cell-based; conditions: B16-F10, 24 h
Micrococcus luteus [2] = test: Antibacterial activity against Micrococcus luteus assessed as compound concentration required to complete growth inhibition at 8 hrs by tube dilution method; format: functional
Bacillus subtilis [3] = test: Antibacterial activity against Bacillus subtilis assessed as compound concentration required to complete growth inhibition at 8 hrs by tube dilution method; format: functional
[4] = Cytotoxicity against human U937 cells assessed as decrease in cell number after 24 hrs by MTT assay; format: functional, cell-based; conditions: U-937, 24 h
COLO 205 [5] = test: Cytotoxicity against human COLO205 cells assessed as decrease in cell number after 24 hrs by MTT assay; format: functional, cell-based; conditions: COLO 205, 24 h
[6] = Cytotoxicity against human HL60 cells assessed as decrease in cell number after 24 hrs by MTT assay; format: functional, cell-based; conditions: HL-60, 24 h
Escherichia coli [7] = test: Antibacterial activity against Escherichia coli assessed as compound concentration required to complete growth inhibition at 8 hrs by tube dilution method; format: functional
Escherichia coli [8] = test: Antibacterial activity against Escherichia coli assessed as growth inhibition at 0.5 mg/ml after 24 hrs by well diffusion method; format: functional; conditions: read-out: DIZ
Klebsiella pneumoniae [9] = test: Antibacterial activity against Klebsiella pneumoniae assessed as compound concentration required to complete growth inhibition at 8 hrs by tube dilution method; format: functional
Bacillus subtilis [10] = test: Antibacterial activity against Bacillus subtilis assessed as growth inhibition at 0.5 mg/ml after 24 hrs by well diffusion method; format: functional; conditions: read-out: DIZ
THP-1 = test: Cytotoxicity against human THP1 cells assessed as decrease in cell number after 24 hrs by MTT assay; format: functional, cell-based; conditions: THP-1, 24 h
Klebsiella pneumoniae [11] = test: Antibacterial activity against Klebsiella pneumoniae assessed as growth inhibition at 0.5 mg/ml after 24 hrs by well diffusion method; format: functional; conditions: read-out: DIZ
Micrococcus luteus [12] = test: Antibacterial activity against Micrococcus luteus assessed as growth inhibition at 0.5 mg/ml after 24 hrs by well diffusion method; format: functional; conditions: read-out: DIZ
COLO 205 [13] = test: Cytotoxicity against human COLO205 cells assessed as growth inhibition at 200 ug/ml after 24 hrs by MTT assay; format: functional, cell-based
HL-60 = test: Cytotoxicity against human HL60 cells assessed as growth inhibition at 200 ug/ml after 24 hrs by MTT assay; format: functional, cell-based
Aspergillus fumigatus = test: Antifungal activity against Aspergillus fumigatus assessed as growth inhibition at 0.5 mg/ml after 48 hrs by well diffusion method; format: functional, organism-based
Aspergillus niger = test: Antifungal activity against Aspergillus niger assessed as growth inhibition at 0.5 mg/ml after 48 hrs by well diffusion method; format: functional, organism-based
Aspergillus terreus = test: Antifungal activity against Aspergillus terreus assessed as growth inhibition at 0.5 mg/ml after 48 hrs by well diffusion method; format: functional, organism-based

MIC (Micrococcus luteus [2])	MIC (Bacillus subtilis [3])	MIC (Escherichia coli [7])	MIC (Klebsiella pneumoniae [9])	Structure (SMILES)	IC50 [1]	IC50 [4]	IC50 (COLO 205 [5])	IC50 [6]	zone of inhibition at 500 µg/mL (Escherichia coli [8])	zone of inhibition at 500 µg/mL (Bacillus subtilis [10])	IC50 (THP-1)	zone of inhibition at 500 µg/mL (Klebsiella pneumoniae [11])	zone of inhibition at 500 µg/mL (Micrococcus luteus [12])	growth inhibition (GI) (COLO 205 [13])	growth inhibition (GI) (HL-60)	zone of inhibition (Aspergillus fumigatus)	zone of inhibition (Aspergillus niger)	zone of inhibition (Aspergillus terreus)
50 µg/mL	50 µg/mL	50 µg/mL	50 µg/mL	C=C(C(O)/C=C/C(C)(O)COC(C)=O)[C@@H]1C[C@@H](OC(C)=O)[C@@]2(C)[C@@H]1[C@@H]1[C@H](C)CC[C@@H]12 (mixture of isomers)	3.45 µg/mL	5.6 µg/mL	36.1 µg/mL	41 µg/mL	11.3 mm	14.3 mm	14.2 µg/mL	10.7 mm	14.7 mm	–	–	–	–	–
100 µg/mL (≈ 239 µM)	100 µg/mL (≈ 239 µM)	200 µg/mL (≈ 478 µM)	200 µg/mL (≈ 478 µM)	C=C(C(=O)/C=C/C(C)(O)COC(C)=O)[C@@H]1C[C@@H](OC(C)=O)[C@@]2(C)[C@@H]1[C@@H]1[C@H](C)CC[C@@H]12 (some centres undefined)	4.41 µg/mL (≈ 10.5 µM)	8.8 µg/mL (≈ 21 µM)	26.8 µg/mL (≈ 64 µM)	35.6 µg/mL (≈ 85.1 µM)	23.7 mm	21.7 mm	33.9 µg/mL (≈ 80.9 µM)	19.7 mm	21.7 mm	–	–	–	–	–
200 µg/mL	200 µg/mL	400 µg/mL	200 µg/mL	C=C(C/C=C/C(C)(C)O)[C@@H]1C[C@@H](OC(C)=O)[C@@]2(C)[C@@H]1[C@@H]1[C@H](C)CC[C@@H]12 (mixture of isomers)	47.1 µg/mL	48.5 µg/mL	64.7 µg/mL	39.9 µg/mL	13.3 mm	15.3 mm	44.6 µg/mL	16 mm	15.3 mm	–	–	–	–	–
400 µg/mL	200 µg/mL	200 µg/mL	200 µg/mL	C=C(C(O)/C=C/C(C)(O)COC(C)=O)[C@@H]1C[C@@H](O)[C@@]2(C)[C@@H]1[C@@H]1[C@H](C)CC[C@@H]12 (mixture of isomers)	99.8 µg/mL	144 µg/mL	–	–	13 mm	10.3 mm	67 µg/mL	12.3 mm	12 mm	inactive	inactive	–	–	–
50 µg/mL (≈ 133 µM)	100 µg/mL (≈ 266 µM)	100 µg/mL (≈ 266 µM)	100 µg/mL (≈ 266 µM)	C=C(C(=O)/C=C/C(C)(O)COC(C)=O)[C@@H]1C[C@@H](O)[C@@]2(C)[C@@H]1[C@@H]1[C@H](C)CC[C@@H]12 (some centres undefined)	3.28 µg/mL (≈ 8.71 µM)	9.58 µg/mL (≈ 25.4 µM)	35.1 µg/mL (≈ 93.3 µM)	51.8 µg/mL (≈ 138 µM)	17 mm	15.7 mm	15.2 µg/mL (≈ 40.3 µM)	14 mm	16.7 mm	–	–	–	–	–
400 µg/mL	400 µg/mL	400 µg/mL	400 µg/mL	C=C(CC(C=C(C)C)OC(C)=O)[C@@H]1C[C@@H](OC(C)=O)[C@@]2(C)[C@@H]1[C@@H]1[C@H](C)CC[C@@H]12 (mixture of isomers)	29 µg/mL	40.1 µg/mL	67.1 µg/mL	84.9 µg/mL	0 mm	11.3 mm	77.8 µg/mL	12.3 mm	12.3 mm	–	–	–	–	–
100 µg/mL (≈ 216 µM)	100 µg/mL (≈ 216 µM)	100 µg/mL (≈ 216 µM)	200 µg/mL (≈ 432 µM)	C=C(C(/C=C/C(C)(O)COC(C)=O)OC(C)=O)[C@@H]1C[C@@H](OC(C)=O)[C@@]2(C)[C@@H]1[C@@H]1[C@H](C)CC[C@@H]12 (some centres undefined)	54.1 µg/mL (≈ 117 µM)	38.4 µg/mL (≈ 83.1 µM)	–	–	21.3 mm	18 mm	188 µg/mL (≈ 407 µM)	16.3 mm	17.3 mm	inactive	inactive	–	–	–

More lines, now with the values behind:

Structure (SMILES)	MIC (Micrococcus luteus [2])	MIC (Bacillus subtilis [3])	MIC (Escherichia coli [7])	MIC (Klebsiella pneumoniae [9])	IC50 [1]	IC50 [4]	IC50 (COLO 205 [5])	IC50 [6]	zone of inhibition at 500 µg/mL (Escherichia coli [8])	zone of inhibition at 500 µg/mL (Bacillus subtilis [10])	IC50 (THP-1)	zone of inhibition at 500 µg/mL (Klebsiella pneumoniae [11])	zone of inhibition at 500 µg/mL (Micrococcus luteus [12])	growth inhibition (GI) (COLO 205 [13])	growth inhibition (GI) (HL-60)	zone of inhibition (Aspergillus fumigatus)	zone of inhibition (Aspergillus niger)	zone of inhibition (Aspergillus terreus)
C=C(C/C=C/C(C)(C)O)[C@@H]1C[C@@H](O)[C@@]2(C)[C@@H]1[C@@H]1[C@H](C)CC[C@@H]12	100 µg/mL (≈ 328 µM)	100 µg/mL (≈ 328 µM)	100 µg/mL (≈ 328 µM)	100 µg/mL (≈ 328 µM)	174 µg/mL (≈ 572 µM)	42.3 µg/mL (≈ 139 µM)	–	–	12.7 mm	13.7 mm	50 µg/mL (≈ 164 µM)	16 mm	16.3 mm	inactive	inactive	–	–	–
C=C(C(O)/C=C/C(C)(O)COC(C)=O)[C@@H]1CC(=O)[C@@]2(C)[C@@H]1[C@@H]1[C@H](C)CC[C@@H]12 (mixture of isomers)	200 µg/mL	100 µg/mL	100 µg/mL	200 µg/mL	58.5 µg/mL	43.6 µg/mL	–	43.9 µg/mL	0 mm	0 mm	52 µg/mL	0 mm	0 mm	inactive	–	–	–	–
C[C@@H]1C[C@@H]([C@H](O)CC2CC(=O)NC(=O)C2)C(=O)[C@@H](C)C1 [CYCLOHEXIMIDE]	–	–	–	–	–	–	–	–	–	–	–	–	–	–	–	16.3 mm	17.7 mm	15.7 mm
CN[C@@H]1[C@H](O[C@H]2[C@H](O[C@H]3[C@H](O)[C@@H](O)[C@H](N=C(N)N)[C@@H](O)[C@@H]3N=C(N)N)O[C@@H](C)[C@]2(O)C=O)O[C@@H](CO)[C@H](O)[C@H]1O.CN[C@@H]1[C@H](O[C@H]2[C@H](O[C@H]3[C@H](O)[C@@H](O)[C@H](N=C(N)N)[C@@H](O)[C@@H]3N=C(N)N)O[C@@H](C)[C@]2(O)C=O)O[C@@H](CO)[C@H](O)[C@H]1O.O=S(=O)(O)O.O=S(=O)(O)O.O=S(=O)(O)O [STREPTOMYCIN SULFATE]	6.25 µg/mL	6.25 µg/mL	6.25 µg/mL	6.25 µg/mL	–	–	–	–	30.3 mm	28.7 mm	–	27.3 mm	28.7 mm	–	–	–	–	–
C=C(C(=O)/C=C/C(C)=O)[C@@H]1CC(=O)[C@@]2(C)[C@@H]1[C@@H]1[C@H](C)CC[C@@H]12	50 µg/mL (≈ 166 µM)	50 µg/mL (≈ 166 µM)	50 µg/mL (≈ 166 µM)	50 µg/mL (≈ 166 µM)	3.62 µg/mL (≈ 12.1 µM)	7.52 µg/mL (≈ 25 µM)	32 µg/mL (≈ 107 µM)	48.4 µg/mL (≈ 161 µM)	11 mm	10.3 mm	18.1 µg/mL (≈ 60.3 µM)	11.3 mm	0 mm	–	–	22 mm	19.3 mm	19.3 mm
C=C(C(O)/C=C/C(C)=O)[C@@H]1C[C@@H](O)[C@@]2(C)[C@@H]1[C@@H]1[C@H](C)CC[C@@H]12 (some centres undefined)	200 µg/mL (≈ 657 µM)	200 µg/mL (≈ 657 µM)	200 µg/mL (≈ 657 µM)	100 µg/mL (≈ 328 µM)	17 µg/mL (≈ 55.9 µM)	13 µg/mL (≈ 42.8 µM)	42.1 µg/mL (≈ 138 µM)	42.3 µg/mL (≈ 139 µM)	17.3 mm	12 mm	38.9 µg/mL (≈ 128 µM)	11.7 mm	12.7 mm	–	–	–	–	–
COc1cc([C@@H]2c3cc4c(cc3[C@@H](O[C@@H]3O[C@@H]5CO[C@@H](C)O[C@H]5[C@H](O)[C@H]3O)[C@H]3COC(=O)[C@H]23)OCO4)cc(OC)c1O [ETOPOSIDE]	–	–	–	–	4.12 µg/mL (≈ 7 µM)	2.27 µg/mL (≈ 3.86 µM)	1.07 µg/mL (≈ 1.82 µM)	2.12 µg/mL (≈ 3.6 µM)	–	–	5.02 µg/mL (≈ 8.53 µM)	–	–	–	–	–	–	–
C=C(C)C(O)CCC(=C)[C@@H]1C[C@@H](OC(C)=O)[C@@]2(C)[C@@H]1[C@@H]1[C@H](C)CC[C@@H]12 (mixture of isomers)	50 µg/mL	100 µg/mL	100 µg/mL	50 µg/mL	104 µg/mL	35.1 µg/mL	145 µg/mL	157 µg/mL	15.7 mm	13.7 mm	58.1 µg/mL	19 mm	16.3 mm	–	–	–	–	–
C=C(CC(C=C(C)C)OC(C)=O)[C@@H]1C[C@@H](O)[C@@]2(C)[C@@H]1[C@@H]1[C@H](C)CC[C@@H]12 (some centres undefined)	200 µg/mL (≈ 577 µM)	400 µg/mL (≈ 1150 µM)	200 µg/mL (≈ 577 µM)	200 µg/mL (≈ 577 µM)	73.2 µg/mL (≈ 211 µM)	60 µg/mL (≈ 173 µM)	87.3 µg/mL (≈ 252 µM)	198 µg/mL (≈ 572 µM)	10.7 mm	0 mm	50.3 µg/mL (≈ 145 µM)	11.7 mm	10.3 mm	–	–	–	–	–
C=C(C[C@@H](O)C=C(C)C)[C@@H]1C[C@@H](O)[C@@]2(C)[C@@H]1[C@@H]1[C@H](C)CC[C@@H]12	100 µg/mL (≈ 328 µM)	100 µg/mL (≈ 328 µM)	100 µg/mL (≈ 328 µM)	50 µg/mL (≈ 164 µM)	46.7 µg/mL (≈ 153 µM)	51.3 µg/mL (≈ 168 µM)	72.2 µg/mL (≈ 237 µM)	41.6 µg/mL (≈ 137 µM)	12.3 mm	13.7 mm	53 µg/mL (≈ 174 µM)	16.7 mm	14 mm	–	–	–	–	–
CC(=O)N1CCN(c2ccc(OCC3COC(Cn4ccnc4)(c4ccc(Cl)cc4Cl)O3)cc2)CC1 (centres undefined) [KETOCONAZOLE]	–	–	–	–	–	–	–	–	–	–	–	–	–	–	–	20.7 mm	22.7 mm	20 mm
